Read-outs that look alike come from different tables or passages of the source.
Columns and labels:
tomato seeds = assay: Germination percentage of primed/coated tomato seeds five days after sowing; format: in vivo; details: tomato seeds primed with melatonin (Mel 1=50 μM, Mel 2=100 μM), 5 DAS, vs unprimed seeds; p<0.05
Method: FIG. 4 depicts germination percentage five days after sowing (5 DAS) in tomato seeds coated (pre-treated) with melatonin concentrations (Mel 1=50 μM, Mel 2=100 μM) in comparison with unprimed seeds (non-treated) and hydrogel coated seeds (Hydro).
Tomato seeds were primed with melatonin at the following concentrations: 5 μM, 10 μM, 15 μM, 25 μM, 50 μM, 100 μM, 200 μM, and 300 μM. Priming was performed by soaking the seeds in the desired melatonin concentration, then vacuum-drying the seeds.
FIG. 4 depicts germination percentage five days after sowing (5 DAS) in tomato seeds coated pre-treated with melatonin concentrations (Mel 1=50 μM, Mel 2=100 μM) in comparison with unprimed seeds (Non-treated) and hydrogel coated seeds (Hydro).

Sorghum = details: Drought; cited from earlier work
Chickpea = details: Drought; cited from earlier work
Pigeon Pea = details: Calcium; cited from earlier work
Milk Thistle = details: Salt; cited from earlier work
Wheat [1] = details: Salt; cited from earlier work
Pot Marigold = details: Salt; cited from earlier work
Corn = details: Salt; cited from earlier work
Maize [2] = details: Salt; cited from earlier work
Wheat [3] = details: cited from earlier work
Maize [4] = details: cited from earlier work
Safflower = details: Drought; cited from earlier work
Rice = details: cited from earlier work

Compound: COc1ccc2[nH]cc(CCNC(C)=O)c2c1 [melatonin]
- germination percentage (tomato seeds): significantly increased germination percentage

Compound: gibberellin [GA]
- Plant Response to GA (Sorghum): Increased CAT and APX activities
- Plant Response to GA (Chickpea): Increased relative water content
- Plant Response to GA (Pigeon Pea): Increased germination
- Plant Response to GA (Milk Thistle): Alleviated salt stress
- Plant Response to GA (Wheat [1]): Increased tolerance
- Plant Response to GA (Pot Marigold): Increased tolerance
- Plant Response to GA (Corn): Increased tissue water content
- Plant Response to GA (Maize [2]): Alleviated salt stress

Compound: O=C(O)c1ccccc1O [SA, salicyclic acid]
- Plant Response to SA (Wheat [3]; Drought): Balanced nutrient uptake
- Plant Response to SA (Wheat [3]; Osmotic): Increased tolerance
- Plant Response to SA (Wheat [3]; Salinity): Decreased electrolyte leakage
- Plant Response to SA (Maize [4]; Chilling): Enhanced antioxidant activity
- Plant Response to SA (Maize [4]; Lead): Increased nitric oxide content
- Plant Response to SA (Safflower): Enhanced antioxidant activity
- Plant Response to SA (Rice; Chilling): Enhanced antioxidant activity
- Plant Response to SA (Rice; Chromium): Increased chlorophyll content
